Data as given in US20240116985A1, “STAPLED PEPTIDES AND METHODS THEREOF” (priority 2020, published 2024).
In brackets after ≈: the same amount, converted by molar mass. Like-named read-outs stand apart in the source and are kept apart here.

Key:
[1] = target: T1, full-length beta-Catenin (Uniprot ID P35222) (Homo sapiens, UniProt P35222); test: Fluorescence polarization IC50 (beta-catenin / 5FAM-TCF4 10-53 competition); assay type: binding
T1 construct: 10 nM full-length beta-Catenin (Uniprot ID P35222)
T1 sequence (P35222 1-781): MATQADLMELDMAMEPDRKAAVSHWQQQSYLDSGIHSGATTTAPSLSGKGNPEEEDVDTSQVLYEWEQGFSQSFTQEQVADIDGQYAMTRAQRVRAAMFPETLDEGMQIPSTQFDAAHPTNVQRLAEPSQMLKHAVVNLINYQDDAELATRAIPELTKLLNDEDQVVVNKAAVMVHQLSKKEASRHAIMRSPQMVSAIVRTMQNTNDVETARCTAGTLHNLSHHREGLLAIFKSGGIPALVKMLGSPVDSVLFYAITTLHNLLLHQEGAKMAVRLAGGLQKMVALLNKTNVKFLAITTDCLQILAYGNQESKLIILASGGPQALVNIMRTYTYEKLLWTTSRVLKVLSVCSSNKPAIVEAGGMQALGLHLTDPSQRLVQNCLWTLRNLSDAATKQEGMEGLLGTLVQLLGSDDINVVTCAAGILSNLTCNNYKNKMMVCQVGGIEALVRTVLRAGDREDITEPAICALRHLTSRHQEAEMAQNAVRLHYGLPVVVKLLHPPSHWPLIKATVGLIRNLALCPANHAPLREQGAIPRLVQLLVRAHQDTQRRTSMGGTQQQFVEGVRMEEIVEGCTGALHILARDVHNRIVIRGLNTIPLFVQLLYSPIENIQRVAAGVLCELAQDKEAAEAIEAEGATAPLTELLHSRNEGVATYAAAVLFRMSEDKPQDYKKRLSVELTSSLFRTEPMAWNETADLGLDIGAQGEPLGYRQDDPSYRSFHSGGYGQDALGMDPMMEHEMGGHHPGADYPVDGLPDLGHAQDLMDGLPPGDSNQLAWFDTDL

[2] = CHI Log D procedure; assay type: physicochemical; conditions: for CHI Log D: pH 7.4
[3] = Solubility in PBS; assay type: physicochemical
Method in brief: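 Solubility is derived from HPLC peak areas: the ratio of the PBS supernatant peak to a 50 μM DMSO peptide peak, times 50 uM.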

[4] = fluorescence polarization, read-out: beta-Catenin FP IC50

SMILES | IC50 ([1]; read-out: FP EC50) [nM] | IC50 ([1]; read-out: beta-Catenin FP IC50, fluorescence polarization) [nM] | CHI Log D [2] | Solubility [3] [µM] | IC50 [1, 4] [nM] | chromatographic logD ([2]; pH 7.4, CHI Log D) | IC50 ([1]; read-out: bCat FP IC50) [nM] | chromatographic logD ([2]; pH 7.4, LogD) | Solubility ([3]; Solubility (uM)) [µM]
CC[C@H](C)[C@@H]1NC(=O)[C@H](CC(=O)O)NC(=O)[C@]2(CC=CCCCC3(CCCC=CCCCCCC[C@@](C)(C(=O)N[C@@H](Cc4ccccc4)C(=O)N[C@@H](Cc4csc5ccccc45)C(=O)N[C@@H](CCC(N)=O)C(N)=O)NC(=O)[C@H](CCC(N)=O)NC(=O)[C@H](Cc4ccccc4)NC(=O)[C@H](C)NC(=O)[C@H](C)NC(=O)[C@H](CCC(=O)O)NC(=O)[C@H](CC(=O)O)NC3=O)NC1=O)CCCN2C(=O)Cc1ccccc1 (stereo partly drawn) [I-601, Bnc-PL3-Asp-Ile-B5-Asp-Glu-Ala-Ala-Phe-Gln-S8-Phe-BztA-Gln-NH2] | 419 | 419 | 2.748 | 43 (≈ 84.2 µg/mL) | – | – | – | – | –
CC[C@H](C)[C@@H]1NC(=O)[C@H](CC(=O)O)NC(=O)[C@]2(CC=CCCCC3(CCCC=CCCCCCC[C@@](C)(C(=O)N[C@@H](Cc4ccccc4)C(=O)N[C@@H](Cc4csc5ccccc45)C(=O)N[C@@H](CCC(N)=O)C(N)=O)NC(=O)[C@H](CCC(N)=O)NC(=O)[C@H](Cc4ccccc4)NC(=O)[C@H](C)NC(=O)[C@H](C)NC(=O)[C@H](CCC(N)=O)NC(=O)[C@H](CC(=O)O)NC3=O)NC1=O)CCCN2C(C)=O (stereo partly drawn) [I-603, Ac-PL3-Asp-Ile-B5-Asp-Gln-Ala-Ala-Phe-Gln-S8-Phe-BztA-Gln-NH2] | – | – | – | 10 (≈ 18.8 µg/mL) | 392 | 2.62 | – | – | –
CC[C@H](C)[C@@H]1NC(=O)[C@H](CC(=O)O)NC(=O)[C@]2(CC=CCCCC3(CCCC=CCCCCCC[C@@](C)(C(=O)N[C@@H](Cc4ccccc4)C(=O)N[C@@H](Cc4csc5ccccc45)C(=O)N[C@@H](CCC(N)=O)C(N)=O)NC(=O)[C@H](CCC(N)=O)NC(=O)[C@H](Cc4ccccc4)NC(=O)[C@H](C)NC(=O)[C@H](C)NC(=O)[C@H](CCCNC(N)=O)NC(=O)[C@H](CC(=O)O)NC3=O)NC1=O)CCCN2C(C)=O (stereo partly drawn) [I-604, Ac-PL3-Asp-Ile-B5-Asp-Cit-Ala-Ala-Phe-Gln-S8-Phe-BztA-Gln-NH2] | 692 | – | 2.609 | 10 (≈ 19.1 µg/mL) | 692 | – | – | – | –
CC[C@H](C)[C@@H]1NC(=O)[C@H](CC(=O)O)NC(=O)[C@]2(CC=CCCCC3(CCCC=CCCCCCC[C@@](C)(C(=O)N[C@@H](Cc4ccccc4)C(=O)N[C@@H](Cc4csc5ccccc45)C(=O)N[C@@H](CCC(N)=O)C(N)=O)NC(=O)[C@H](CCC(N)=O)NC(=O)[C@H](Cc4ccccc4)NC(=O)[C@H](C)NC(=O)[C@H](C)NC(=O)[C@H](CCCNC(N)=O)NC(=O)[C@H](CC(=O)O)NC3=O)NC1=O)CCCN2C(C)=O (stereo partly drawn) [I-605, Ac-PL3-Asp-Ile-B5-Asp-Cit-Ala-Ala-Phe-Gln-S8-Phe-BztA-Gln-NH2] | 632 | – | 2.617 | 10 (≈ 19.1 µg/mL) | 632 | – | – | – | –
CC[C@H](C)[C@@H]1NC(=O)[C@H](CC(=O)O)NC(=O)[C@]2(CC=CCCCC3(CCCC=CCCCCCC[C@@](C)(C(=O)N[C@@H](Cc4ccccc4)C(=O)N[C@@H](Cc4csc5ccccc45)C(=O)N[C@@H](CCC(N)=O)C(N)=O)NC(=O)[C@H](CCC(N)=O)NC(=O)[C@H](Cc4ccccc4)NC(=O)[C@H](C)NC(=O)[C@H](C)NC(=O)[C@H](Cc4ccc(C(=O)O)cc4)NC(=O)[C@H](CC(=O)O)NC3=O)NC1=O)CCCN2C(C)=O (stereo partly drawn) [I-606, Ac-PL3-Asp-Ile-B5-Asp-4COOHF-Ala-Ala-Phe-Gln-S8-Phe-BztA-Gln-NH2] | 289 | – | 2.412 | 49 (≈ 95.3 µg/mL) | 289 | – | – | – | –
CC[C@H](C)[C@@H]1NC(=O)[C@H](CC(=O)O)NC(=O)[C@]2(CC=CCCCC3(CCCC=CCCCCCC[C@@](C)(C(=O)N[C@@H](Cc4ccccc4)C(=O)N[C@@H](Cc4csc5ccccc45)C(=O)N[C@@H](CCC(N)=O)C(N)=O)NC(=O)[C@H](CCC(N)=O)NC(=O)[C@H](Cc4ccccc4)NC(=O)[C@H](C)NC(=O)[C@H](C)NC(=O)[C@H](Cc4ccc(C(=O)O)cc4)NC(=O)[C@H](CC(=O)O)NC3=O)NC1=O)CCCN2C(C)=O (stereo partly drawn) [I-607, Ac-PL3-Asp-Ile-B5-Asp-4COOHF-Ala-Ala-Phe-Gln-S8-Phe-BztA-Gln-NH2] | 253 | – | 2.416 | 48 (≈ 93.4 µg/mL) | 253 | – | – | – | –
CC[C@H](C)[C@@H]1NC(=O)[C@H](CC(=O)O)NC(=O)[C@]2(CC=CCCCC3(CCCC=CCCCCCC[C@@](C)(C(=O)N[C@@H](Cc4ccccc4)C(=O)N[C@@H](Cc4csc5ccccc45)C(=O)N[C@@H](CCC(N)=O)C(N)=O)NC(=O)[C@H](CCC(N)=O)NC(=O)[C@H](Cc4ccccc4)NC(=O)[C@H](C)NC(=O)[C@H](C)NC(=O)[C@H](CCCC(=O)O)NC(=O)[C@H](CC(=O)O)NC3=O)NC1=O)CCCN2C(C)=O (stereo partly drawn) [I-612, Ac-PL3-Asp-Ile-B5-Asp-Aad-Ala-Ala-Phe-Gln-S8-Phe-BztA-Gln-NH2] | – | – | – | 49 (≈ 93 µg/mL) | – | 2.41 | 64 | 2.4 | > 25
CC[C@H](C)[C@@H]1NC(=O)[C@H](CC(=O)O)NC(=O)[C@]2(CC=CCCCC3(CCCC=CCCCCCC[C@@](C)(C(=O)N[C@@H](Cc4ccccc4)C(=O)N[C@@H](Cc4csc5ccccc45)C(=O)N[C@@H](CCC(N)=O)C(N)=O)NC(=O)[C@H](CCC(N)=O)NC(=O)[C@H](Cc4ccccc4)NC(=O)[C@H](C)NC(=O)[C@H](C)NC(=O)[C@H](CCCNC(=N)N)NC(=O)[C@H](CC(=O)O)NC3=O)NC1=O)CCCN2C(C)=O (stereo partly drawn) [I-613, Ac-PL3-Asp-Ile-B5-Asp-Arg-Ala-Ala-Phe-Gln-S8-Phe-BztA-Gln-NH2] | 1630 | – | 2.781 | 10 (≈ 19.1 µg/mL) | 1630 | – | – | – | –
CC[C@H](C)[C@@H]1NC(=O)[C@H](CC(=O)O)NC(=O)[C@]2(CC=CCCCC3(CCCC=CCCCCCC[C@@](C)(C(=O)N[C@@H](Cc4ccccc4)C(=O)N[C@@H](Cc4csc5ccccc45)C(=O)N[C@@H](CCC(N)=O)C(N)=O)NC(=O)[C@H](CCC(N)=O)NC(=O)[C@H](Cc4ccccc4)NC(=O)[C@H](C)NC(=O)[C@H](C)NC(=O)[C@H](CCCNC(=N)N)NC(=O)[C@H](CC(=O)O)NC3=O)NC1=O)CCCN2C(C)=O (stereo partly drawn) [I-614, Ac-PL3-Asp-Ile-B5-Asp-Arg-Ala-Ala-Phe-Gln-S8-Phe-BztA-Gln-NH2] | 1140 | – | 2.801 | 10 (≈ 19.1 µg/mL) | 1140 | – | – | – | –
CC(=O)N1CCC[C@]12CC=CCCCC1(CCCC=CCCCCCC[C@@](C)(C(=O)N[C@@H](Cc3ccccc3)C(=O)N[C@@H](Cc3csc4ccccc34)C(=O)N[C@@H](Cc3c[nH]cn3)C(N)=O)NC(=O)[C@H](CC(N)=O)NC(=O)[C@H](Cc3ccccc3)NC(=O)[C@H](C)NC(=O)[C@H](C)NC(=O)[C@H](CCC(=O)O)NC(=O)[C@H](CC(=O)O)NC1=O)NC(=O)[C@H](CC1CCCCC1)NC(=O)[C@H](CC(=O)O)NC2=O (stereo partly drawn) [I-615, Ac-PL3-Asp-Cha-B5-Asp-Glu-Ala-Ala-Phe-Asn-S8-Phe-BztA-His-NH2] | – | – | – | 10 (≈ 19.2 µg/mL) | 50 | 2.83 | – | – | –
CC(=O)N1CCC[C@]12CC=CCCCC1(CCCC=CCCCCCC[C@@](C)(C(=O)N[C@@H](Cc3ccccc3)C(=O)N[C@@H](Cc3csc4ccccc34)C(=O)N[C@@H](Cc3c[nH]cn3)C(N)=O)NC(=O)[C@H](CCCNC(N)=O)NC(=O)[C@H](Cc3ccccc3)NC(=O)[C@H](C)NC(=O)[C@H](C)NC(=O)[C@H](CCC(=O)O)NC(=O)[C@H](CC(=O)O)NC1=O)NC(=O)[C@H](CC(C)C)NC(=O)[C@H](CC(=O)O)NC2=O (stereo partly drawn) [I-616, Ac-PL3-Asp-Leu-B5-Asp-Glu-Ala-Ala-Phe-Cit-S8-Phe-BztA-His-NH2] | – | – | – | 10 (≈ 19.2 µg/mL) | 108 | 2.41 | – | – | –
CC(=O)N1CCC[C@]12CC=CCCCC1(CCCC=CCCCCCC[C@@](C)(C(=O)N[C@@H](Cc3ccccc3)C(=O)N[C@@H](Cc3csc4ccccc34)C(=O)N[C@@H](Cc3c[nH]cn3)C(N)=O)NC(=O)[C@H]([C@@H](C)O)NC(=O)[C@H](Cc3ccccc3)NC(=O)[C@H](C)NC(=O)[C@H](C)NC(=O)[C@H](CCC(=O)O)NC(=O)[C@H](CC(=O)O)NC1=O)NC(=O)[C@H](CC(C)C)NC(=O)[C@H](CC(=O)O)NC2=O (stereo partly drawn) [I-617, Ac-PL3-Asp-Leu-B5-Asp-Glu-Ala-Ala-Phe-Thr-S8-Phe-BztA-His-NH2] | 253 | – | 2.549 | 10 (≈ 18.7 µg/mL) | 253 | – | – | – | –
